Source: article PMC10388362, “Fluorescent Ligands Enable Target Engagement Studies for the Intracellular Allosteric Binding Site of the Chemokine Receptor CXCR2” (Journal of Medicinal Chemistry, 2023)
Several values for one entry are separate records, joined by “and”; a condition that tells them apart may be missing. Equal values may be shown once.

Assays:
[1] = target: T1, CXCR2 (Homo sapiens, UniProt P25025); experiment: Membrane-based NanoBRET saturation assay (CXCR2_Nluc membranes); type: binding; conditions: cell-free, membranes from HEK293T cells transiently expressing CXCR2_Nluc; read-out: Kd (equilibrium saturation binding)
T1 construct: Promega pNLF1-C (Nluc) #CXCR20TN00; host or cells: HEK293T, transient transfection (PEI)
T1 sequence (P25025 1-360): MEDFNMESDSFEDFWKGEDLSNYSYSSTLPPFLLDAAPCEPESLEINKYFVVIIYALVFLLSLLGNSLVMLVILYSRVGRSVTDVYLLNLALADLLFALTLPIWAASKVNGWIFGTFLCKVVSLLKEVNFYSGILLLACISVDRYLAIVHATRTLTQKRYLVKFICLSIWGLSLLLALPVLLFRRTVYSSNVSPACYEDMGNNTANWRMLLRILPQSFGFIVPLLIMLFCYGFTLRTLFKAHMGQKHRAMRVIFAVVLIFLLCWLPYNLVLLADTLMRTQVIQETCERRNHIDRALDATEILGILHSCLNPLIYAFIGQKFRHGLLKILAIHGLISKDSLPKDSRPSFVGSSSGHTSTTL
Procedure: Membranes from HEK293T cells transiently expressing the respective GPCR were prepared as follows. The medium of the transfected cells was refreshed after 24 h before cells were harvested 48 h post-transfection. The growth medium was removed, and the cells were carefully washed with cold phosphate-buffered saline (10 mL per Ø 15 cm dish). The cells were detached with 15 mL of ice-cold Tris-EDTA buffer (10 mM Tris, 0.5 mM EDTA, 5.4 mM KCl, 140 mM NaCl, pH 7.4) and subsequently centrifuged with 218g for 8 min. The supernatant was removed and the cells were resuspended in 10 mL of Tris-EDTA buffer. The cells were lysed with an Ultraturrax (20,000 rpm) used five times for 5 s with a 25 s break on ice in between. The lysate was centrifuged at 50,830g for 18 min at 4 °C. The supernatant was discarded, and the pellet was homogenized in a membrane buffer (50 mM Tris, 1 mM EDTA, 5 mM MgCl2, 100 μg/mL bacitracin, 5 μg/mL soybean trypsin inhibitor, pH 7.4) with a glass-teflon homogenizer. Aliquots of 250 μL were shock-frozen in liquid nitrogen and directly stored at −80 °C. Finally, the protein concentration was determined using the Lowry method.[43]
For the establishment of our NanoBRET binding assay, we referred to a recently published protocol.[45] The fluorescent ligands (9a–c) were dissolved in DMSO (1 mM) and further diluted to varying concentrations in an assay buffer (50 mM Na2HPO4, 50 mM KH2PO4, pH 7.4, 1 mg/mL saponin, 5% FBS) and 5 μL of these dilutions were pipetted to a 384-well plate. To determine the total binding, 5 μL of the assay buffer was added to the corresponding wells, while 5 μL of a solution of 3 in the assay buffer (final assay concentration: 1 μM) was used to determine nonspecific binding. Then, 20 μL of the membrane preparations diluted in the assay buffer (2 μg total protein/well) were added and the plates were incubated for 90 min at 37 °C. Subsequently, 5 μL of a furimazine solution (Promega, Mannheim, Germany, final assay dilution: 1:5000) was added to each well (final assay volume: 35 μL) before measuring luminescence with a CLARIOstar microplate reader using 620/10 and 475/30 nm emission filters after 5 min of incubation in the dark. Bioluminescence resonance energy transfer (BRET) was determined as the ratio of acceptor fluorescence and donor luminescence. The algorithms for one-site saturation binding from PRISM9.5 (GraphPad) were utilized to analyze total, nonspecific, and specific binding. Specific binding signals were calculated as a difference of total and nonspecific binding. If required, netBRET values were calculated as the difference between total BRET values and the values obtained in the absence of a fluorescent ligand. For selectivity studies with CCR2, CCR7, CCR9, and CXCR1, we modified the procedure described above.

[2] = target: T1, CXCR2; experiment: Live cell NanoBRET association and dissociation kinetic assay; type: binding; conditions: 37 °C
Procedure: HEK293T cells were transfected with the plasmid (5.5 μg) for CXCR2_Nluc using polyethylenimine (PEI) as the transfection reagent (PEI/DNA ratio 3:1). After 24 h at 37 °C and 5% CO2, the cells were detached with DMEM and transferred to a white F-bottom 384-well plate (10,000 cells/well), which was coated with 5 μL/well poly-D-lysine (0.1 mg/mL, dissolved in water), and incubated for further 24 h at 37 °C and 5% CO2. Subsequently, the cells were washed with phosphate-buffered saline (Gibco DPBS, with CaCl2 and MgCl2). 15 μL of the assay medium (Gibco DMEM/F12, 15 mM HEPES, no phenol red supplemented with 5% FBS) and 5 μL of vivazine (final assay dilution: 1:300 in the assay buffer) were added and the cells were incubated at 37 °C for 90 min. Then, 5 μL of the fluorescent ligand (9a), diluted to varying concentrations (final assay concentrations: 10–0.5 nM in the assay medium) was transferred to a 384-well plate. For the determination of nonspecific binding, we added a solution of the fluorescent ligand (9a) and a nonlabeled competitor dissolved in the assay medium (3, final assay concentration: 10 μM) instead. BRET ratios were measured with a CLARIOstar microplate reader using 620/10 and 475/30 nm emission filters over time. The obtained data were analyzed using the association kinetics (two or more conc. of hot ligand) algorithm in PRISM9.5 (GraphPad) to determine the association kinetics.
After running the association assay in cells for at least 133 min, 1 μL of an unlabeled competitor dissolved in the assay buffer (3, final assay concentration: 10 μM) was added. For control experiments, we added 1 μL of the assay medium instead of the competitor solution. BRET ratios were measured with a CLARIOstar microplate reader using 620/10 and 475/30 nm emission filters over time. Specific BRET ratios were calculated as a difference of total and nonspecific binding. The obtained data were analyzed using the dissociation one phase exponential decay algorithm in PRISM9.5 (GraphPad) to determine the dissociation kinetics.

[3] = cells, 9a 1 nM, single determinations
[4] = cells, 9a 5 nM, single determinations
[5] = cells, 9a 10 nM, single determinations
[6] = live HEK293T cells expressing CXCR2_Nluc, mean

SMILES: Cc1ccc([C@H](Nc2c(Nc3cccc(C(=O)NCc4cn(CCOCCOCCOCCNC(=O)c5ccc(C(=O)[O-])c(-c6c7ccc(=[N+](C)C)cc-7oc7cc(N(C)C)ccc67)c5)nn4)c3O)c(=O)c2=O)C(C)(C)C)o1 [9a, (R)-4-((2-(2-(2-(2-(4-((3-((2-((2,2-Dimethyl-1-(5-methylfuran-2-yl)propyl)amino)-3,4-dioxocyclobut-1-en-1-yl)amino)-2-hydroxybenzamido)methyl)-1H-1,2,3-triazol-1-yl)ethoxy)ethoxy)ethoxy)ethyl)carbamoyl)-2-(6-(dimethylamino)-3-(dimethyliminio)-3H-xanthen-9-yl)benzoate]
- Kd [1]: 4.17 ± 0.8 nM
- koff [2, 3]: 8.88e-05 s⁻¹
- koff [min-1] [2, 3]: 0.00837 min⁻¹ and 0.00621 min⁻¹ and 0.00861 min⁻¹
- tr [2, 3]: 187.6 min and 119.5 min and 161.1 min and 116.1 min
- koff [2, 4]: 9.75e-05 s⁻¹
- koff [min-1] [2, 4]: 0.0072 min⁻¹ and 0.00855 min⁻¹ and 0.00476 min⁻¹
- tr [2, 4]: 210.2 min and 170.9 min and 138.9 min and 117.0 min
- koff [2, 5]: 7.53e-05 s⁻¹
- koff [min-1] [2, 5]: 0.00791 min⁻¹ and 0.00898 min⁻¹ and 0.00859 min⁻¹
- tr [2, 5]: 221.0 min and 126.4 min and 111.4 min and 116.4 min
- Kd ([2]; live HEK293T cells expressing CXCR2_Nluc): 0.2 ± 0.02 nM
- koff [2, 6]: 0.000122 s⁻¹
- kon [2, 6]: 620000 M⁻¹ s⁻¹
- residence time tr [2, 6]: 146 ± 10 min
- residence time ([2]; live HEK293T cells expressing CXCR2_Nluc, mean, read-out: residence time tr): 146 min
